From PubChem BioAssay AID504520 (The Scripps Research Institute Molecular Screening Center, 2011) come the findings set out here.

Among the test systems are ABHD11; LYPLA1; LYPLA2; ESD.
Experiment in all cases: competitive ABPP of LYPLA1 versus anti-target hydrolases – fluorescence, gel-based ABPP, mouse proteome, late-stage follow-up (AID 504520);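 note: soluble proteome from BW5147 murine T cells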
Conditions in all cases: FP-rhodamine fluorescence, stronger effect = higher value

Experiment [1] has as its target Platelet-activating factor acetylhydrolase 2, cytoplasmic (Mus musculus) (UniProt Q8VDG7).

SMILES strings stand for the structures. Activity calls are given as the source filed them. The rule behind the calls is not given here.

Chain of Platelet-activating factor acetylhydrolase 2, cytoplasmic (Mus musculus) (Q8VDG7 whole entry, looked up): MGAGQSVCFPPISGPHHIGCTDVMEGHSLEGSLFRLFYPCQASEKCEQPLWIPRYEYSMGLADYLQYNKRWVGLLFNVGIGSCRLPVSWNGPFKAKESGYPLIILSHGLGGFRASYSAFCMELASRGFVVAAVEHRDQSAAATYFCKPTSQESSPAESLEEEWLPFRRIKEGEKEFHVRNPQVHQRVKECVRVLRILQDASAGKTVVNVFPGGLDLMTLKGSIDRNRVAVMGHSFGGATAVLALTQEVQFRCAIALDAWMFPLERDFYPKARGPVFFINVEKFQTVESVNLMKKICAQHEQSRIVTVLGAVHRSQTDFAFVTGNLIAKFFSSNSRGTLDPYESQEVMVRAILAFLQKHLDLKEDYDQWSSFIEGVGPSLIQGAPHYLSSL

What is called inhibition is the drop in the measured response relative to a control, in per cent. On to `O=C(N(c1ccccc1)c1ccccc1)n1ncc(C(O)(c2ccccc2)c2ccccc2)n1`, for which the inhibition was 0% (inactive) with ABHD11 (at 0.75 µM); 0% in the experiment with ABHD11 (inhibition, at 0.03 µM); 0% in the experiment on ABHD11 (inhibition, at 0.15 µM); 25% (inactive) in experiment [1] (PAFAH2, at 0.75 µM); 0% in experiment [1] (PAFAH2, inhibition, at 0.03 µM); 0% in experiment [1] (PAFAH2, inhibition, at 0.15 µM). Besides, the inhibition in the experiment with LYPLA1 (at 0.75 µM) is 0% (inactive); in the experiment with LYPLA1 (inhibition, at 0.03 µM), 0%; in the experiment on LYPLA1 (inhibition, at 0.15 µM) it was 0%; in the experiment with LYPLA2 (at 0.75 µM), 0% (inactive); in the experiment with LYPLA2 (inhibition, at 0.03 µM), 0%; in the experiment on LYPLA2 (inhibition, at 0.15 µM) it was 0%. The inhibition in the experiment on ESD (at 0.75 µM) is 0% (inactive); in the experiment on ESD (inhibition, at 0.03 µM) it was 0%; in the experiment with ESD (inhibition, at 0.15 µM), 0%.

With `O=C(N(c1ccccc1)c1ccc2ccccc2c1)n1ncc(C(O)(c2ccccc2)c2ccccc2)n1`, the inhibition in the experiment on ABHD11 (at 0.75 µM) was 100%; with ABHD11 (inhibition, at 0.03 µM), 0%; in the experiment on ABHD11 (inhibition, at 0.15 µM), 100%; in experiment [1] (PAFAH2, at 0.75 µM), 25% (inactive); in experiment [1] (PAFAH2, inhibition, at 0.03 µM), 0%; in experiment [1] (PAFAH2, inhibition, at 0.15 µM), 0%. In addition, the inhibition with LYPLA1 (at 0.75 µM) is 0% (inactive); with LYPLA1 (inhibition, at 0.03 µM), 0%; in the experiment with LYPLA1 (inhibition, at 0.15 µM) it was 0%; in the experiment with LYPLA2 (at 0.75 µM), 0% (inactive); in the experiment with LYPLA2 (inhibition, at 0.03 µM), 0%; in the experiment on LYPLA2 (inhibition, at 0.15 µM), 0%. The inhibition with ESD (at 0.75 µM) is 0% (inactive); in the experiment on ESD (inhibition, at 0.03 µM) it was 0%; with ESD (inhibition, at 0.15 µM) it was 0%.

`O=C(N1CCc2ccccc2C1)n1ncc(C(O)(c2ccccc2)c2ccccc2)n1`: the inhibition is 100% in the experiment on ABHD11 (at 0.75 µM); 100% in the experiment on ABHD11 (inhibition, at 0.03 µM); 100% in the experiment on ABHD11 (inhibition, at 0.15 µM); 100% in experiment [1] (PAFAH2, at 0.75 µM); 0% in experiment [1] (PAFAH2, inhibition, at 0.03 µM); 100% in experiment [1] (PAFAH2, inhibition, at 0.15 µM). For the same molecule, the inhibition is 50% (inactive) with LYPLA1 (at 0.75 µM); 0% in the experiment with LYPLA1 (inhibition, at 0.03 µM); 0% with LYPLA1 (inhibition, at 0.15 µM); 0% (inactive) in the experiment with LYPLA2 (at 0.75 µM); 0% in the experiment on LYPLA2 (inhibition, at 0.03 µM); 0% with LYPLA2 (inhibition, at 0.15 µM). Further, the inhibition was 25% (inactive) in the experiment on ESD (at 0.75 µM); 0% with ESD (inhibition, at 0.03 µM); 10% with ESD (inhibition, at 0.15 µM).

With `O=C(N1CCCCC1)n1ncc(C(O)c2ccccc2)n1` (stereo not given), the inhibition is 100% in the experiment on ABHD11 (at 0.75 µM); 75% in the experiment with ABHD11 (inhibition, at 0.03 µM); 100% with ABHD11 (inhibition, at 0.15 µM); 0% (inactive) in experiment [1] (PAFAH2, at 0.75 µM); 0% in experiment [1] (PAFAH2, inhibition, at 0.03 µM); 0% in experiment [1] (PAFAH2, inhibition, at 0.15 µM). For the same molecule, the inhibition is 100% in the experiment on LYPLA1 (at 0.75 µM); 50% with LYPLA1 (inhibition, at 0.03 µM); 50% in the experiment on LYPLA1 (inhibition, at 0.15 µM); 0% (inactive) in the experiment on LYPLA2 (at 0.75 µM); 0% in the experiment with LYPLA2 (inhibition, at 0.03 µM); 0% with LYPLA2 (inhibition, at 0.15 µM). The inhibition in the experiment on ESD (at 0.75 µM) was 0% (inactive); with ESD (inhibition, at 0.03 µM), 0%; with ESD (inhibition, at 0.15 µM) it was 0%.

Take `COC1CCN(C(=O)n2ncc(C(O)(c3ccccc3)c3ccccc3)n2)CC1`: the inhibition with ABHD11 (at 0.75 µM) was 100%; with ABHD11 (inhibition, at 0.03 µM), 100%; with ABHD11 (inhibition, at 0.15 µM), 100%; in experiment [1] (PAFAH2, at 0.75 µM) it was 0% (inactive); in experiment [1] (PAFAH2, inhibition, at 0.03 µM), 0%; in experiment [1] (PAFAH2, inhibition, at 0.15 µM), 0%. For the same molecule, the inhibition is 100% with LYPLA1 (at 0.75 µM); 0% in the experiment on LYPLA1 (inhibition, at 0.03 µM); 50% in the experiment on LYPLA1 (inhibition, at 0.15 µM); 25% (inactive) in the experiment on LYPLA2 (at 0.75 µM); 0% in the experiment with LYPLA2 (inhibition, at 0.03 µM); 0% with LYPLA2 (inhibition, at 0.15 µM). Besides, the inhibition is 25% (inactive) in the experiment with ESD (at 0.75 µM); 0% in the experiment on ESD (inhibition, at 0.03 µM); 0% in the experiment on ESD (inhibition, at 0.15 µM).

In the case of `CC(C)CC(O)(CC(C)C)c1cnn(C(=O)N(c2ccccc2)c2ccccc2)n1`, the inhibition in the experiment with ABHD11 (at 0.75 µM) is 50% (inactive); in the experiment on ABHD11 (inhibition, at 0.03 µM), 0%; in the experiment on ABHD11 (inhibition, at 0.15 µM) it was 0%; in experiment [1] (PAFAH2, at 0.75 µM), 0% (inactive); in experiment [1] (PAFAH2, inhibition, at 0.03 µM), 0%; in experiment [1] (PAFAH2, inhibition, at 0.15 µM) it was 0%. Also, the inhibition in the experiment on LYPLA1 (at 0.75 µM) is 0% (inactive); in the experiment on LYPLA1 (inhibition, at 0.03 µM), 0%; in the experiment on LYPLA1 (inhibition, at 0.15 µM), 0%; in the experiment on LYPLA2 (at 0.75 µM) it was 0% (inactive); in the experiment with LYPLA2 (inhibition, at 0.03 µM) it was 0%; in the experiment with LYPLA2 (inhibition, at 0.15 µM), 0%. For the same molecule, the inhibition is 0% (inactive) in the experiment with ESD (at 0.75 µM); 0% with ESD (inhibition, at 0.03 µM); 0% in the experiment on ESD (inhibition, at 0.15 µM).
